Data from ChEMBL document CHEMBL3870330, “Exploring the anti-biofilm activity of cinnamic acid derivatives in Candida albicans” (2016).
Converted amounts (≈) assume the structure as drawn.

Legend:
Type in all cases: functional
Candida albicans [1] = assay: Antibiofilm activity against Candida albicans ATCC 10231 after 24 hrs by XTT reduction assay
Candida albicans [2] = assay: Antifungal activity against planktonic cells of Candida albicans ATCC 10231 after 48 hrs by microdilution assay; settings: ATCC 10231, 48 h
Candida albicans [3] = assay: Antibiofilm activity against mature biofilm of Candida albicans ATCC 10231 after 24 hrs by XTT reduction assay

Compound	MBIC50 (Candida albicans [1])	MIC50 (Candida albicans [2])	MBIC50 (Candida albicans [3])
Cc1ncc([N+](=O)[O-])n1CCOC(=O)/C=C/c1ccccc1	>=32 - 128 ug ml-1	≥ 128 µg/mL	>128 µg/mL
O=C(/C=C/c1ccccc1)OCc1ccc([N+](=O)[O-])o1	16 to 64 µg/mL	2 to 16 µg/mL (≈ 7.32 to 58.6 µM)	64 µg/mL
O=C(/C=C/c1ccccc1)N1CCN(c2ncccc2[N+](=O)[O-])CC1	>128 µg/mL	> 128 µg/mL	>128 µg/mL
O=C(/C=C/c1ccccc1)OCc1ccco1	>=16 - 128 ug ml-1	64 to 128 µg/mL (≈ 280 to 561 µM)	>=128 ug ml-1
O=C(/C=C/c1ccccc1)NCCCn1ccnc1	>128 µg/mL	> 128 µg/mL	>128 µg/mL
O=C(/C=C/c1ccccc1)OC(Cn1cncn1)(Cn1cncn1)c1ccc(F)cc1F	4 to 128 µg/mL	0.5 to 64 µg/mL (≈ 1.15 to 147 µM)	>32 to 128 µg/mL
O=C(/C=C/c1ccccc1)N1CCN(c2ccc([N+](=O)[O-])cc2)CC1	>128 µg/mL	32 to 128 µg/mL (≈ 94.8 to 379 µM)	>32 to 128 µg/mL
O=C(/C=C/c1ccccc1)OC(Cn1ccnc1)c1ccc(Cl)cc1Cl (stereo unspecified)	2 to 64 µg/mL	2 to 16 µg/mL (≈ 5.16 to 41.3 µM)	8 to 64 µg/mL
O=C(/C=C/c1ccccc1)NCCc1c[nH]c2ccccc12	8 to 128 µg/mL	> 128 µg/mL	>128 µg/mL
O=C(/C=C/c1ccccc1)Nc1nc2ccc([N+](=O)[O-])cc2s1	>=64 - 128 ug ml-1	> 128 µg/mL	>=64 - 128 ug ml-1
O=C(O)/C=C/c1ccccc1 [CINNAMIC ACID]	>128 µg/mL	> 128 µg/mL	>128 µg/mL
OC(Cn1cncn1)(Cn1cncn1)c1ccc(F)cc1F [FLUCONAZOLE]	128 µg/mL	0.5 µg/mL (≈ 1.63 µM)	>128 µg/mL
